Data on two compounds can be found in article PMC3268193 (British Journal of Pharmacology, 2012).

What all share (type): cell-based
The target in assay [1] is T1, P2X1 receptor mutant R139M (Homo sapiens, UniProt P51575, R139M).
T1 sequence (P51575 1-399 R139M): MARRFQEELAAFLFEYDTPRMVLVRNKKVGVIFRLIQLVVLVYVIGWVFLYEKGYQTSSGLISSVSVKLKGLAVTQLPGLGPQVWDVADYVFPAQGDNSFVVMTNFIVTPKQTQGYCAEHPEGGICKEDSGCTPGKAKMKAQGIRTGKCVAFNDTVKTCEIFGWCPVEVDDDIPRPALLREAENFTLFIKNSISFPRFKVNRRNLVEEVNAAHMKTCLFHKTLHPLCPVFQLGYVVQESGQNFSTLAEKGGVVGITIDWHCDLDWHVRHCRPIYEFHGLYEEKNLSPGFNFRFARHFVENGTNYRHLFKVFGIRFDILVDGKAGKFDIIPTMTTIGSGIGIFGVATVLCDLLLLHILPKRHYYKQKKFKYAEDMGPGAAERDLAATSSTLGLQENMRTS
Briefly: Two-electrode voltage clamp, P2X1 mutant R139M.

Assay [2] addresses T2, P2X1 receptor mutant K140L (Homo sapiens, UniProt P51575, K140L).
T2 sequence (P51575 1-399 K140L): T1 sequence (P51575 1-399 R139M) with M139R, K140L
Put plainly: Two-electrode voltage clamp, P2X1 mutant K140L. (Two-electrode voltage clamp is typically applied to oocytes expressing channels or transporters.)

Assay [3] has as its target T3, P2X1 receptor mutant K136E (Homo sapiens, UniProt P51575, K136E).
T3 sequence (P51575 1-399 K136E): T1 sequence (P51575 1-399 R139M) with K136E, M139R
Put plainly: Two-electrode voltage clamp, P2X1 mutant K136E.

The next assay deals with T4, P2X1 Cys2(1-3) chimera (Homo sapiens, UniProt P51575, A118P/DEL120-123/E128S/G124S/G131D/INS125RVHNAT/K127L/S130A).
T4 sequence (P51575 with tags, fused parts or gaps A118P/DEL120-123/G124S/INS125RVHNAT/K127L/E128S/S130A/G131D): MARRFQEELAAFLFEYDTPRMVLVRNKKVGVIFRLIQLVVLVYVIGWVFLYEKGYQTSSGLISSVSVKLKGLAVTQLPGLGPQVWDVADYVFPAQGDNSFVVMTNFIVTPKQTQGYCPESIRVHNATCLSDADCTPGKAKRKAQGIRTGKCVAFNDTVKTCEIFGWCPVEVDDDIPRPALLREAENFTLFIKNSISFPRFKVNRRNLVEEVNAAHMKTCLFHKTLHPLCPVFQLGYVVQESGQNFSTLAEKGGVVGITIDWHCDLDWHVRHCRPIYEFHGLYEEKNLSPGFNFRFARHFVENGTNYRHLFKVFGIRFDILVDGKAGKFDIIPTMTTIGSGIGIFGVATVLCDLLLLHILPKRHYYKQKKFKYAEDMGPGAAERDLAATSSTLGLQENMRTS
Briefly: Two-electrode voltage clamp, chimera P2X1 Cys2.

The next assay has as its target T5, P2X2 Cys1(3-4) chimera (Homo sapiens, UniProt Q9UBL9, A144P/D148K/E146K/G151A/L147A/L150K/L154I/M149R/N152Q/R158K/V143T).
T5 sequence (Q9UBL9 1-471 V143T/A144P/E146K/L147A/D148K/M149R/L150K/G151A/N152Q/L154I/R158K): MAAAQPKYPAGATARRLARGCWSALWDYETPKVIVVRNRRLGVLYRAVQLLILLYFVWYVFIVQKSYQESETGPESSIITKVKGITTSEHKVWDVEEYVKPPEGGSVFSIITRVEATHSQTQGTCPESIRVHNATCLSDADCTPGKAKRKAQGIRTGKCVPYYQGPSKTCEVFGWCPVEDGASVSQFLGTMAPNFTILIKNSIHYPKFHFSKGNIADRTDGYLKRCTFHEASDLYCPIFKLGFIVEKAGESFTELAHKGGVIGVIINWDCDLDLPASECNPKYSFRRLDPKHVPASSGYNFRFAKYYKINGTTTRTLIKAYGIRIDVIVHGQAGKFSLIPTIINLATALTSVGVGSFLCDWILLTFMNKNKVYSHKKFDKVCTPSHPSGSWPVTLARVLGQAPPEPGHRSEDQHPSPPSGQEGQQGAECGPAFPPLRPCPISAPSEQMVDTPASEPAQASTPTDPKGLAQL
Briefly: Two-electrode voltage clamp, chimera P2X2 Cys1.

The target of another assay is T6, human P2X1 receptor WT (Homo sapiens, UniProt P51575).
T6 sequence (P51575 1-399): T1 sequence (P51575 1-399 R139M) with M139R
Briefly: Two-electrode voltage clamp, WT P2X1 receptor in Xenopus oocytes.

Setting [4] is: 1 nM antagonist, EC90 ATP (10 µM).

Molecules are shown by their SMILES. Substitutions are numbered along the chain they refer to.

In general, IC50 refers to the concentration that inhibits the measured activity by half. In the case of `O=C(Nc1cc(C(=O)Nc2ccc(S(=O)(=O)O)cc2S(=O)(=O)O)cc(C(=O)Nc2ccc(S(=O)(=O)O)cc2S(=O)(=O)O)c1)Nc1cc(C(=O)Nc2ccc(S(=O)(=O)O)cc2S(=O)(=O)O)cc(C(=O)Nc2ccc(S(=O)(=O)O)cc2S(=O)(=O)O)c1` [NF449, 4,4′,4′′,4′′′-(carbonylbis(imino-5,1,3-benzenetriyl-bis(carbonylimino)))tetrakis-benzene-1,3-disulphonic acid], the “Reduction of ATP-evoked current” value in assay [1] (setting [4]), in assay [2] (setting [4]) and in assay [3] (setting [4]) was 40–70% throughout. For the same compound, the “Reduction in NF449 sensitivity compared with P2X1 WT” value at P2X1 Cys2(1-3) chimera is roughly 20 fold. Moreover, on P2X2 Cys1(3-4) chimera (read-out: NF449 IC50, vs EC90 ATP), the half-inhibitory concentration (IC50) was 1100 nM. Further, at human P2X1 receptor WT (WT P2X1), the Schild slope turned out to be 1.17± 0.16. Besides, the “Hill slope of NF449 inhibition curve” value on human P2X1 receptor WT (WT P2X1, vs EC90 ATP) worked out at 0.98 ± 0.13.

Regarding `Cc1ccc(C(=O)Nc2ccc(S(=O)(=O)O)c3cc(S(=O)(=O)O)cc(S(=O)(=O)O)c23)cc1NC(=O)c1cccc(NC(=O)Nc2cccc(C(=O)Nc3cc(C(=O)Nc4ccc(S(=O)(=O)O)c5cc(S(=O)(=O)O)cc(S(=O)(=O)O)c45)ccc3C)c2)c1` [suramin], the “Effect of mutation on suramin sensitivity” value in assay [1], in assay [2] and in assay [3] was “no effect” each time. The “Increase in suramin sensitivity compared with WT P2X1” value at P2X1 Cys2(1-3) chimera worked out at 15 fold. In addition, the “Increase in suramin sensitivity compared with WT P2X2” value at P2X2 Cys1(3-4) chimera was roughly 30 fold. Besides, the “Difference in suramin sensitivity between human P2X1 and P2X2 receptors” value at human P2X1 receptor WT was roughly 60 fold.
